Results taken from US20240238423A9, “TETRAHYDROISOQUINOLINE HETEROBIFUNCTIONAL BCL-XL DEGRADERS” (Treeline Biosciences, Inc., priority 2022, published 2024).

Molecular target: T1, Human BCL-XL protein (N-terminal HiBiT tagged BCL-XL in HT1080 cells) (Homo sapiens, UniProt Q07817)
T1 construct: expressed in transfected cells; host or cells: HT-1080 (ATCC CCL-121), stably transduced with lentivirus pLV-UBC-N-HiBiT-BCL-XL-PGK-puro and selected with puromycin
Assay: HiBiT based degradation assay
Assay type: cell-based
Settings: HT1080 cells expressing HiBiT-BCL-XL, 24 h; for Ymin (24 h): BCL-XL degradation normalized with DMSO control; for DC50: BCL-XL degradation, read-out: EC50 (24 h)
Source text: Human BCL-XL protein coding open reading frame fused with N-terminal HiBiT coding sequence was synthesized from Integrated DNA Technologies (IDT). Next, N-HiBiT-BCL-XL sequence was cloned into pLV-UBC-PGK-Puro, a lentivirus plasmid purchased from Vectorbuilder, to generate pLV-UBC-N-HiBiT-BCL-XL-PGK-puro. Lentiviral particles were generated from Lenti-X™ 293T cells (Clontech) by co-transfection of pLV-UBC-N-HiBiT-BCL-XL-PGK-puro plasmids and lentiviral packaging plasmid mix (Cellecta). HT-1080 [HT1080](ATCC CCL-121) cells were infected with the lentivirus, and HT1080 cells stably integrated with the lentiviral vectors were established by incubation with 1 μg/mL puromycin (Thermofisher).
HT1080 cells expressing N-terminal HiBiT tagged BCL-XL were dispensed into a 384-well plate pre-spotted with compounds at varying concentrations. Three thousand cells were seeded into each well in 40 μL of RPMI 1640 media. […] After incubation, luminescence was read on a PHERAstar FSX Plate Reader (BMG). BCL-XL degradation at each indicated concentration was normalized with the DMSO control. The BCL-XL degradation curves were plotted using a four-parameter logistic model. For compounds displaying hook effects, the curve fitting was performed using the bottom point of the hook curves (i.e., the point of Ymin) as the bottom plateau to calculate EC50.

T1 sequence (Q07817 whole entry): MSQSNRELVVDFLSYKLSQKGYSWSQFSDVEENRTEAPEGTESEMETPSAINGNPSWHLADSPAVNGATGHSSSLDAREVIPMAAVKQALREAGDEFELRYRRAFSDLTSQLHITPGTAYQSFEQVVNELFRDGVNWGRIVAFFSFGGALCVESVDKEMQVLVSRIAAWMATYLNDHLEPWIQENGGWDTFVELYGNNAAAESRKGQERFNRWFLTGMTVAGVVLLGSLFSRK

| Structure (SMILES) | Ymin (24 h) | DC50 |
| --- | --- | --- |
| Cc1c(O[C@H]2CC[C@H](CC[C@H](C)CN3CCN(c4ccc5c(C6CCC(=O)NC6=O)nn(C)c5c4)CC3)CC2)cccc1-c1ccc(N2CCc3cccc(C(=O)Nc4nc5ccccc5s4)c3C2)nc1C(=O)O (single isomer, unassigned) [Compound 308b] | A (Ymin < 50%) | < 100 nM |
| Cc1c(O[C@H]2CC[C@H]([C@H](C)CCN3CCN(c4ccc5c(C6CCC(=O)NC6=O)nn(C)c5c4)CC3)CC2)cccc1-c1ccc(N2CCc3cccc(C(=O)Nc4nc5ccccc5s4)c3C2)nc1C(=O)O (single isomer, unassigned) [Compound 310a] | A (Ymin < 50%) | < 100 nM |
| Cc1c(O[C@H]2CC[C@H]([C@@H](C)CCN3CCN(c4ccc5c(C6CCC(=O)NC6=O)nn(C)c5c4)CC3)CC2)cccc1-c1ccc(N2CCc3cccc(C(=O)Nc4nc5ccccc5s4)c3C2)nc1C(=O)O (single isomer, unassigned) [Compound 310b] | A (Ymin < 50%) | < 100 nM |
| Cc1c(O[C@H]2CC[C@H](CCCN3CCC(c4cccc5c(C6CCC(=O)NC6=O)nn(C)c45)C3)CC2)cccc1-c1ccc(N2CCc3cccc(C(=O)Nc4nc5ccccc5s4)c3C2)nc1C(=O)O (single isomer, unassigned) [Compound 320a] | A (Ymin < 50%) | < 100 nM |
| Cc1c(O[C@H]2CC[C@H](CCCN3CC[C@@H](c4cccc5c(C6CCC(=O)NC6=O)nn(C)c45)C3)CC2)cccc1-c1ccc(N2CCc3cccc(C(=O)Nc4nc5ccccc5s4)c3C2)nc1C(=O)O (single isomer, unassigned) [Compound 320b] | A (Ymin < 50%) | < 100 nM |
| Cc1c(O[C@H]2CC[C@H](CCCCN3CC[C@H](c4cccc5c(C6CCC(=O)NC6=O)nn(C)c45)C3)CC2)cccc1-c1ccc(N2CCc3cccc(C(=O)Nc4nc5ccccc5s4)c3C2)nc1C(=O)O (single isomer, unassigned) [Compound 321a] | A (Ymin < 50%) | < 100 nM |
| Cc1c(O[C@H]2CC[C@H](CCCCN3CC[C@@H](c4cccc5c(C6CCC(=O)NC6=O)nn(C)c45)C3)CC2)cccc1-c1ccc(N2CCc3cccc(C(=O)Nc4nc5ccccc5s4)c3C2)nc1C(=O)O (single isomer, unassigned) [Compound 321b] | A (Ymin < 50%) | < 100 nM |
| Cc1c(O[C@H]2CC[C@H](CCCN3CC[C@H](c4ccc5c(C6CCC(=O)NC6=O)nn(C)c5c4)C3)CC2)cccc1-c1ccc(N2CCc3cccc(C(=O)Nc4nc5ccccc5s4)c3C2)nc1C(=O)O (single isomer, unassigned) [Compound 331a] | A (Ymin < 50%) | < 100 nM |
| Cc1c(O[C@H]2CC[C@H](CCCN3CC[C@@H](c4ccc5c(C6CCC(=O)NC6=O)nn(C)c5c4)C3)CC2)cccc1-c1ccc(N2CCc3cccc(C(=O)Nc4nc5ccccc5s4)c3C2)nc1C(=O)O (single isomer, unassigned) [Compound 331b] | A (Ymin < 50%) | < 100 nM |
| Cc1c(O[C@H]2CC[C@H](CCCCN3CC[C@H](c4ccc5c(C6CCC(=O)NC6=O)nn(C)c5c4)C3)CC2)cccc1-c1ccc(N2CCc3cccc(C(=O)Nc4nc5ccccc5s4)c3C2)nc1C(=O)O (single isomer, unassigned) [Compound 332a] | A (Ymin < 50%) | < 100 nM |
| Cc1c(O[C@H]2CC[C@H](CCCCN3CC[C@@H](c4ccc5c(C6CCC(=O)NC6=O)nn(C)c5c4)C3)CC2)cccc1-c1ccc(N2CCc3cccc(C(=O)Nc4nc5ccccc5s4)c3C2)nc1C(=O)O (single isomer, unassigned) [Compound 332b] | A (Ymin < 50%) | < 100 nM |
| Cc1c(O[C@H]2CC[C@H](CCC[C@H](C)N3CCN(c4ccc5c(C6CCC(=O)NC6=O)nn(C)c5c4)CC3)CC2)cccc1-c1ccc(N2CCc3cccc(C(=O)Nc4nc5ccccc5s4)c3C2)nc1C(=O)O (single isomer, unassigned) [Compound 333a] | A (Ymin < 50%) | < 100 nM |
| Cc1c(O[C@H]2CC[C@H](CCC[C@@H](C)N3CCN(c4ccc5c(C6CCC(=O)NC6=O)nn(C)c5c4)CC3)CC2)cccc1-c1ccc(N2CCc3cccc(C(=O)Nc4nc5ccccc5s4)c3C2)nc1C(=O)O (single isomer, unassigned) [Compound 333b] | A (Ymin < 50%) | < 100 nM |
| Cc1c(O[C@H]2CC[C@H](CCCC(C)N3CCN(c4cccc5c(C6CCC(=O)NC6=O)nn(C)c45)CC3)CC2)cccc1-c1ccc(N2CCc3cccc(C(=O)Nc4nc5ccccc5s4)c3C2)nc1C(=O)O (single isomer, unassigned) [Compound 349a] | A (Ymin < 50%) | < 100 nM |
| Cc1c(O[C@H]2CC[C@H](CCC[C@@H](C)N3CCN(c4cccc5c(C6CCC(=O)NC6=O)nn(C)c45)CC3)CC2)cccc1-c1ccc(N2CCc3cccc(C(=O)Nc4nc5ccccc5s4)c3C2)nc1C(=O)O (single isomer, unassigned) [Compound 349b] | A (Ymin < 50%) | < 100 nM |
| Cc1c(O[C@H]2CC[C@H](CCCCN3CCC[C@H](c4cccc5c(C6CCC(=O)NC6=O)nn(C)c45)C3)CC2)cccc1-c1ccc(N2CCc3cccc(C(=O)Nc4nc5ccccc5s4)c3C2)nc1C(=O)O (single isomer, unassigned) [Compound 351a] | A (Ymin < 50%) | < 100 nM |
| Cc1c(O[C@H]2CC[C@H](CCCCN3CCC[C@@H](c4cccc5c(C6CCC(=O)NC6=O)nn(C)c45)C3)CC2)cccc1-c1ccc(N2CCc3cccc(C(=O)Nc4nc5ccccc5s4)c3C2)nc1C(=O)O (single isomer, unassigned) [Compound 351b] | A (Ymin < 50%) | < 100 nM |
| Cc1c(O[C@H]2CC[C@H](CCCCN3CCC[C@H](c4ccc5c(C6CCC(=O)NC6=O)nn(C)c5c4)C3)CC2)cccc1-c1ccc(N2CCc3cccc(C(=O)Nc4nc5ccccc5s4)c3C2)nc1C(=O)O (single isomer, unassigned) [Compound 352a] | A (Ymin < 50%) | < 100 nM |
| Cc1c(O[C@H]2CC[C@H](CCCCN3CCC[C@@H](c4ccc5c(C6CCC(=O)NC6=O)nn(C)c5c4)C3)CC2)cccc1-c1ccc(N2CCc3cccc(C(=O)Nc4nc5ccccc5s4)c3C2)nc1C(=O)O (single isomer, unassigned) [Compound 352b] | A (Ymin < 50%) | < 100 nM |
| Cc1cc(OC[C@@H](C)CC2CCN(CC(=O)Nc3ccc4c(C5CCC(=O)NC5=O)nn(C)c4c3)CC2)ccc1-c1ccc(N2CCc3cccc(C(=O)Nc4nc5ccccc5s4)c3C2)nc1C(=O)O (stereo in doubt) [Compound 271b, 6-(8-(benzo[d]thiazol-2-ylcarbamoyl)-3,4-dihydroisoquinolin-2(1H)-yl)-3-(4-((2S)-3-(1-(2-((3-(2,6-dioxopiperidin-3-yl)-1-methyl-1H-indazol-6-yl)amino)-2-oxoethyl)piperidin-4-yl)-2-methylpropoxy)-2-methylphenyl)picolinic acid] | C (Ymin ≥ 70%) | < 100 nM |
| Cc1c(OCC[C@H]2CCC3(CCN(CC(=O)Nc4ccc5c(C6CCC(=O)NC6=O)nn(C)c5c4)CC3)C2)cccc1-c1ccc(N2CCc3cccc(C(=O)Nc4nc5ccccc5s4)c3C2)nc1C(=O)O (stereo in doubt) [Compound 272a, 6-(8-(benzo[d]thiazol-2-ylcarbamoyl)-3,4-dihydroisoquinolin-2(1H)-yl)-3-(3-(2-((2S)-8-(2-((3-(2,6-dioxopiperidin-3-yl)-1-methyl-1H-indazol-6-yl)amino)-2-oxoethyl)-8-azaspiro[4.5]decan-2-yl)ethoxy)-2-methylphenyl)picolinic acid] | A (Ymin < 50%) | < 100 nM |
| Cc1cc(O[C@H](C)CCC2CCN(CC(=O)Nc3ccc4c(C5CCC(=O)NC5=O)nn(C)c4c3)CC2)ccc1-c1ccc(N2CCc3cccc(C(=O)Nc4nc5ccccc5s4)c3C2)nc1C(=O)O (stereo in doubt) [Compound 276a, 6-[8-(1,3-benzothiazol-2-ylcarbamoyl)-3,4-dihydro-1H-isoquinolin-2-yl]-3-[4-[(1R)-3-[1-[2-[[3-(2,6-dioxo-3-piperidyl)-1-methyl-indazol-6-yl]amino]-2-oxo-ethyl]-4-piperidyl]-1-methyl-propoxy]-2-methyl-phenyl]pyridine-2-carboxylic acid] | A (Ymin < 50%) | < 100 nM |
| Cc1cc(O[C@@H](C)CCC2CCN(CC(=O)Nc3ccc4c(C5CCC(=O)NC5=O)nn(C)c4c3)CC2)ccc1-c1ccc(N2CCc3cccc(C(=O)Nc4nc5ccccc5s4)c3C2)nc1C(=O)O (stereo in doubt) [Compound 276b, 6-[8-(1,3-benzothiazol-2-ylcarbamoyl)-3,4-dihydro-1H-isoquinolin-2-yl]-3-[4-[(1S)-3-[1-[2-[[3-(2,6-dioxo-3-piperidyl)-1-methyl-indazol-6-yl]amino]-2-oxo-ethyl]-4-piperidyl]-1-methyl-propoxy]-2-methyl-phenyl]pyridine-2-carboxylic acid] | A (Ymin < 50%) | < 100 nM |
